Measurements as given in article PMC5785503, “Development of novel fluorescent histamine H1-receptor antagonists to study ligand-binding kinetics in living cells” (Scientific Reports, 2018).

Columns and labels:
H1-YFP = biological target: T1, H1-YFP (Homo sapiens, UniProt P35367); type: cell-based
T1 construct: expressed in transfected cells
Protocol: CHO H1R and CHO H1-YFP cells were grown to approximately 80% confluency on 8-well Labtek chambered coverglasses (Nunc Nalgene). […] Cells were then incubated with the required concentration of fluorescent ligand for 30 min prior to the collection of single equatorial confocal images. Images were obtained using a Zeiss LSM710 confocal microscope (Carl Zeiss GmbH, Jena, Germany) fitted with a 63× plan-Apochromat NA1.3 Ph3 oil-immersion lens within the School of Life Sciences Imaging Unit. […] For all experiments a pinhole of 1 Airy Unit was used and fixed laser power, gain and offset for the BY630 containing compounds were kept the same for samples within each experiment.

Nluc-H1R [1] = biological target: T2, Nluc-H1R (Homo sapiens, UniProt P35367); assay: NanoBRET association kinetics in HEK293T cell membranes; type: binding; conditions: kinetic, n = 4, read-out: pKD (calculated affinity) in membranes (converted)
T2 sequence (P35367 2-487 limits assumed): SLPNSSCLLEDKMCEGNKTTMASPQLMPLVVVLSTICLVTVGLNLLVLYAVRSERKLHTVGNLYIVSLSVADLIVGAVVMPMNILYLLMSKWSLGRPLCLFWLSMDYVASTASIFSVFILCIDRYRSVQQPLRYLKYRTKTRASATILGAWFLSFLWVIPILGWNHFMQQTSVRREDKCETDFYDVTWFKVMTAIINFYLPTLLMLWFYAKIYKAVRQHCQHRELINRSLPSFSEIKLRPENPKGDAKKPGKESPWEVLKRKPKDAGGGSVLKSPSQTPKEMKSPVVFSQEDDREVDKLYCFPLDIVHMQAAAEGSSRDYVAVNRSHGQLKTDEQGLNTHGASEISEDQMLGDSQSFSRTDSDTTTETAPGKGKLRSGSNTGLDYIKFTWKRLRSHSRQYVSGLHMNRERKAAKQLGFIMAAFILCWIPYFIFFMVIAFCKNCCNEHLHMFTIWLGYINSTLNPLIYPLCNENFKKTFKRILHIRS
Protocol: (§1) HEK293T cell stably expressing Nluc-H1 were grown to confluence in 500 cm^2 dishes. Normal growth media was replaced with ice-cold PBS and the cells were removed from the dish by scraping. The cells were then transferred to a 50 ml tube and centrifuged at 250 × g for 5 min. The supernatant was removed and the resulting pellets stored at −80 °C. Thawed pellets were resuspended in PBS and homogenized using an electrical homogenizer in 10 × 2 s bursts. Unbroken cells and nuclei were removed by centrifugation (1200 × g for 10 min) and the supernatant subsequently centrifuged at 41,415 g for 30 min. The membrane pellet was resuspended in PBS and homogenized by 20 passes of a glass-on-Teflon homogenizer. Protein concentration was determined using a BCA protein assay and membranes stored at −80 °C until required.
(§2) Immediately before experimentation, media was replaced with HBSS. […] For association kinetics experiments, the required concentration of fluorescent ligand in the presence or absence of 10 µM doxepin was added simultaneously. […] Non-specific binding was determined by the addition of […] 10 µM doxepin.
From association kinetic data, non-specific binding was determined for each concentration of fluorescent ligand at each time point by the addition of 10 µM doxepin and was subtracted from total binding.

Nluc-H1R [2] = biological target: T2, Nluc-H1R; assay: NanoBRET saturation binding in whole HEK293T cells
Description: (§3) Immediately before experimentation, media was replaced with HBSS. […] […]. […] […].

human H1R = biological target: T3, human H1R (Homo sapiens, UniProt P35367); assay: [3H]mepyramine competition radioligand binding, HEK293T cell homogenates; conditions: read-out: Radioligand binding pKi (converted)
T3 construct: expressed in transfected cells
T3 sequence (P35367 whole entry): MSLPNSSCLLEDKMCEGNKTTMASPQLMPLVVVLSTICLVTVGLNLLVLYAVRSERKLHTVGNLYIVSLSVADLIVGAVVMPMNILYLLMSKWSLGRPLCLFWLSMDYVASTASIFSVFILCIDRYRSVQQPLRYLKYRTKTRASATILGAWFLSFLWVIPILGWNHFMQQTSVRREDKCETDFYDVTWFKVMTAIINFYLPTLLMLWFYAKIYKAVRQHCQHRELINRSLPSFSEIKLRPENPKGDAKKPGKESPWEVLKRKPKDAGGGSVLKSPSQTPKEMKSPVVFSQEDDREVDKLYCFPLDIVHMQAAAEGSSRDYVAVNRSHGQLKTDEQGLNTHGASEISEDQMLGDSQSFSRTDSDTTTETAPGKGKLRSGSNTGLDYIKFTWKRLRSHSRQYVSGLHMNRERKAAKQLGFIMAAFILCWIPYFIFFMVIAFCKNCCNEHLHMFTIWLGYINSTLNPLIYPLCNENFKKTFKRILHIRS
Protocol: […]. […] […]. All ligand binding was performed under gentle agitation. […] […].

Nluc-H1R [3] = biological target: T2, Nluc-H1R; assay: NanoBRET association kinetics in whole HEK293T cells; type: binding; conditions: for Kd: kinetic KD (koff/kon), whole HEK293T cells expressing Nluc-H1R, read-out: NanoBRET kinetics pKD (converted); for residence time: read-out: NanoBRET kinetics Tr (residence time); for koff: read-out: NanoBRET kinetics koff, whole HEK293T cells expressing Nluc-H1R, room temperature; for kon: read-out: NanoBRET kinetics kon, whole HEK293T cells expressing Nluc-H1R, room temperature, non-specific 10 μM doxepin
Description: as §3

Nluc-H1R [4] = biological target: T2, Nluc-H1R; assay: NanoBRET saturation binding in HEK293T cell membranes; conditions: value used in Cheng-Prusoff equation, read-out: KD of labelled ligand in membranes
Protocol: as §1, §2

H1R = biological target: H1R; design: method as in PMID 22007643; conditions: parent compound at the H1R; cited from earlier work
[5] = HEK293T cells expressing Nluc-H1R, mean ± SEM, read-out: NanoBRET saturation pKD (converted)
[6] = NanoBRET, value used in Cheng-Prusoff equation, read-out: KD of labelled ligand in whole cells

T1 sequence (P35367 whole entry): as above

Row | SMILES | BODIPY630/650 fluorescence localisation (confocal) (H1-YFP) | fluorescence after pre-treatment with unlabelled mepyramine (specificity, confocal) (H1-YFP) | Kd (Nluc-H1R [1]) [µM] | Kd (Nluc-H1R [2]; [5]) [µM] | Kd (Nluc-H1R [2]; [6]) [µM] | Ki (human H1R) [µM] | Kd (Nluc-H1R [3]) [µM] | residence time (Nluc-H1R [3]) [min] | Kd (Nluc-H1R [4]) [µM] | koff (Nluc-H1R [3]) [s⁻¹] | kon (Nluc-H1R [3]) [M⁻¹ s⁻¹] | pKi (H1R)
1 | COc1ccc(CN(CCN(C)CCC(=O)N[C@@H](C)C(=O)N[C@@H](C)C(=O)NCCNC(=O)CCCCCNC(=O)COc2ccc(/C=C/C3=[N+]4C(=Cc5ccc(-c6cccs6)n5[B-]4(F)F)C=C3)cc2)c2ccccn2)cc1 [Compound 10, 6-(2-(4-((E)-2-(5,5-difluoro-7-(thiophen-2-yl)-5H-4λ^4,5λ^4-dipyrrolo[1,2-c:2′,1′-f][1,3,2]diazaborinin-3-yl)vinyl)phenoxy)acetamido)-N-((10 S,13 S)-1-(4-methoxyphenyl)-5,10,13-trimethyl-8,11,14-trioxo-2-(pyridin-2-yl)-2,5,9,12,15-pentaazaheptadecan-17-yl)hexanamide] | clear membrane localisation | very little fluorescence was observed | 0.00355 | 0.00794 | 0.0092 | 0.0251 | 0.00501 | 4.99 ± 0.78 | 0.0288 |  |  | 
2 | COc1ccc(CN(CCN(C)CCC(=O)N[C@@H](C)C(=O)N[C@@H](C)C(=O)N[C@@H](CO)C(=O)NCCNC(=O)CCCCCNC(=O)COc2ccc(/C=C/C3=[N+]4C(=Cc5ccc(-c6cccs6)n5[B-]4(F)F)C=C3)cc2)c2ccccn2)cc1 [Compound 11, 6-(2-(4-((E)-2-(5,5-difluoro-7-(thiophen-2-yl)-5H-4λ^4,5λ^4-dipyrrolo[1,2-c:2′,1′-f][1,3,2]diazaborinin-3-yl)vinyl)phenoxy)acetamido)-N-((10 S,13 S,16 S)-16-(hydroxymethyl)-1-(4-methoxyphenyl)-5,10,13-trimethyl-8,11,14,17-tetraoxo-2-(pyridin-2-yl)-2,5,9,12,15,18-hexaazaicosan-20-yl)hexanamide] | clear membrane localisation | some residual cell surface fluorescence was observed |  | 0.0631 |  | 0.01 | 0.00631 | 8.4 ± 0.91 |  | 0.0021 | 330000 | 
3 | COc1ccc(CN(CCN(C)CCC(=O)NCCCC(=O)N[C@@H](C)C(=O)N[C@@H](C)C(=O)NCCNC(=O)CCCCCNC(=O)COc2ccc(/C=C/C3=[N+]4C(=Cc5ccc(-c6cccs6)n5[B-]4(F)F)C=C3)cc2)c2ccccn2)cc1 [Compound 12, 5,5-difluoro-3-((E)-4-(((15 R,18 R)-1-(4-methoxyphenyl)-5,15,18-trimethyl-8,13,16,19,24,31-hexaoxo-2-(pyridin-2-yl)-2,5,9,14,17,20,23,30-octaazadotriacontan-32-yl)oxy)styryl)-7-(thiophen-2-yl)-5H-4λ^4-dipyrrolo[1,2-c:2′,1′-f][1,3,2]diazaborinin-5-uide] | clear membrane localisation | very little fluorescence was observed |  | 0.0501 |  | 0.02 | 0.0398 | 7.68 ± 0.58 |  | 0.00223 | 55000 | 
4 | C[C@H](NC(=O)CCN1CCC(Oc2ccccc2Cc2ccccc2)CC1)C(=O)N[C@@H](C)C(=O)N[C@@H](C)C(=O)NCCNC(=O)CCCCCNC(=O)COc1ccc(/C=C/C2=[N+]3C(=Cc4ccc(-c5cccs5)n4[B-]3(F)F)C=C2)cc1 [Compound 23, N-((5 S,8 S,11 S)-15-(4-(2-benzylphenoxy)piperidin-1-yl)-5,8,11-trimethyl-4,7,10,13-tetraoxo-3,6,9,12-tetraazapentadecyl)-6-(2-(4-((E)-2-(5,5-difluoro-7-(thiophen-2-yl)-5H-4λ^4,5λ^4-dipyrrolo[1,2-c:2′,1′-f][1,3,2]diazaborinin-3-yl)vinyl)phenoxy)acetamido)hexanamide] |  | Some residual binding was observed |  | 0.00794 | 0.0098 | 0.00398 | 0.0126 | 54.1 ± 5.33 |  | 0.000317 | 26700 | 
5 | NC(=O)C[C@H](NC(=O)CNC(=O)CNC(=O)CCN1CCC(Oc2ccccc2Cc2ccccc2)CC1)C(=O)NCCNC(=O)CCCCCNC(=O)COc1ccc(/C=C/C2=[N+]3C(=Cc4ccc(-c5cccs5)n4[B-]3(F)F)C=C2)cc1 [Compound 24, (S,E)-2-(2-(2-(3-(4-(2-benzylphenoxy)piperidin-1-yl)propanamido)acetamido)acetamido)-N^1-(2-(6-(2-(4-(2-(5,5-difluoro-7-(thiophen-2-yl)-5H-4λ^4,5λ^4-dipyrrolo[1,2-c:2′,1′-f][1,3,2]diazaborinin-3-yl)vinyl)phenoxy)acetamido)hexanamido)ethyl)succinamide] |  |  |  | 0.0251 |  | 0.00501 | 0.01 | 37.8 ± 3.44 |  | 0.00045 | 48300 | 
6 | CC(O)[C@H](NC(=O)[C@H](C)NC(=O)[C@H](CC(N)=O)NC(=O)CCN1CCC(Oc2ccccc2Cc2ccccc2)CC1)C(=O)NCCNC(=O)CCCCCNC(=O)COc1ccc(/C=C/C2=[N+]3C(=Cc4ccc(-c5cccs5)n4[B-]3(F)F)C=C2)cc1 (stereo partly drawn) [Compound 25, (S)-2-(3-(4-(2-benzylphenoxy)piperidin-1-yl)propanamido)-N^1-((15 S,18 S)-1-(4-((E)-2-(5,5-difluoro-7-(thiophen-2-yl)-5H-4λ^4,5λ^4-dipyrrolo[1,2-c:2′,1’-f][1,3,2]diazaborinin-3-yl)vinyl)phenoxy)-15-((S)-1-hydroxyethyl)-2,9,14,17-tetraoxo-3,10,13,16-tetraazanonadecan-18-yl)succinamide] |  |  |  | 0.0316 |  | 0.00631 | 0.01 | 39.5 ± 9.4 |  | 0.0005 | 43300 | 
7 | c1ccc(Cc2ccccc2OC2CCNCC2)cc1 [VUF13816, 4-(2-benzylphenoxy)piperidine] |  |  |  |  |  |  |  |  |  |  |  | 8.20
